Source: PubChem BioAssay AID1053163 (Broad Institute, 2014)

Tested on: HepG2 + U0126, LDLR mRNA qRT-PCR, 6 h
Test: MEK-dependence of LDLR transcript upregulation – cell-based, HepG2, U0126, RT-PCR, mechanism study for Trib1 inducer project, late-stage follow-up (AID 1053163)
Conditions: active compounds read high

| Structure (SMILES) | LDLR mRNA fold induction |
| --- | --- |
| CN1C(=O)c2cc(NC(=O)c3ccc(C(F)(F)F)cc3)ccc2OC[C@@H]2O[C@@H](CC(=O)NC3Cc4ccccc4C3)CC[C@@H]21 | 10 |
| CN1C(=O)c2cc(NC(=O)c3ccc(C(F)(F)F)cc3)ccc2OC[C@@H]2O[C@H](CC(=O)NC3Cc4ccccc4C3)CC[C@@H]21 | 2.5 |
